From paper PMC6804243, “Small-Molecule Inhibition of UBE2T/FANCL-Mediated Ubiquitylation in the Fanconi Anemia Pathway” (ACS Chemical Biology, 2019)
Entries after “also recorded” stand apart in the source; their conditions may differ.

Experiments:
[1] = tested on: FANCD2 foci and γH2AX in U2OS cells; assay: High-throughput high content indirect immunofluorescence (FANCD2 foci, γH2AX); format: cell-based; conditions: for γH2AX positive cells / γH2AX levels: CU1 200 μM or CU2 500 μM in combination with HU (2.5 mM, 8 h) or cisplatin (10 μM, 8 h); for H2AX positive nuclei, Experiment 1 / H2AX positive nuclei, Experiment 2 / H2AX positive nuclei, Experiment 3: CU1 200 μM, raw data; for H2AX positive nuclei, Experiment 1 / H2AX positive nuclei, Experiment 2 / H2AX positive nuclei, Experiment 3 / H2AX positive nuclei, Totals: CU2 500 μM, HU 2.5 mM 8 h, cisplatin 10 μM 8 h; for number of FANCD2 foci per cell: 8 h, CU1 200 μM or CU2 500 μM; for H2AX positive nuclei, Totals: sum of experiments 1-3, CU1 200 μM
Procedure: In response to DNA damage, mUb-FANCD2 accumulates at sites of DNA lesions to form foci, promote DNA-damage sensing, activate cell-cycle checkpoints, and promote DNA repair.[23] Therefore, we employed high-throughput high-content indirect immunofluorescence studies to examine the effect of CU1 and CU2 on mUb-FANCD2 focus formation. The experimental format used was similar to the immunoblot-based experiments, excepting that, following treatment with HU (2.5 mM for 8 h) or cisplatin (10 μM for 8 h), cells were fixed, permeabilized and stained with specific FANCD2 primary and fluorescent secondary antibodies. In addition to monitoring mUb-FANCD2 foci, γH2AX was evaluated as a marker of DNA damage induction, and cell nuclei were visualized by 4′,6-diamidino-2-phenylindole (DAPI) staining. […] These observations are in accord with the immunoblot-based experiments wherein reductions in mUb-FANCD2 were observed (Figure 3a).
Figure 4 Further cell-based assays with CU1 and CU2: (a, b) Representative immunofluorescence images of U2OS cells treated with HU (2.5 mM, 8 h) or cisplatin (10 μM, 8 h) in the presence or absence of CU1 (200 μM) or CU2 (500 μM). (c) Quantification of the number of FANCD2 foci in cells treated as in panels (a) and (b). Data accumulated over three independent experiments, each consisting of three technical replicas. (d) IncuCyte analysis of U2OS cells treated with or without carboplatin (15 μM) and CU2 (250 μM). Mean calculated from three wells, four images per well. (HU = DMSO + HU, cisplatin = DMSO + cisplatin). […]
buffer (1 hour at room temperature) followed by three washes with PBST. Cells were then counterstained with DAPI (25 µg/mL) and mounted using Vectashield […]
High-throughput high content indirect immunofluorescence. U2OS cells, seeded in a 96-well plate, were treated with compound for 1 hour followed by 2.5 mM HU or 10 µM cisplatin for 8 hours. Cells were washed 3 times with wash buffer (1xPBS, 0.1% Tween-20) before being fixed in 2% paraformaldehyde (w/v) for 20 minutes at 23 °C. The cells were then washed a further 3 times in wash buffer before being stored overnight at 4°C in the final wash. Next day, the cells were permeabilized using 1xPBS, 0.5% Triton X-100 for 15 minutes at 23 °C and then washed 3 times with wash buffer before blocking with 5% BSA in 1xPBS, 0.1% Tween-20 for 30 minutes at 23 °C. After washing 3 times with wash buffer, the cells were incubated for 1 hour at 23 °C in the presence of primary antibodies (1:50 FANCD2, Santa Cruz, mouse monoclonal and 1:250 γH2AX, Cell Signalling, rabbit) in 5% BSA in wash buffer. After incubation in the presence of primary antibodies, the cells were washed 3 times with wash buffer before being incubated with secondary antibodies in 5% BSA in wash buffer for 1 hour in the dark at 23 °C. The secondary antibodies used were goat anti-mouse AlexaFluor 488 and goat anti-rabbit AlexaFluor 594 (both from Molecular Probes, Invitrogen). The cells were then washed a further 3 times with wash buffer before being stained in the presence of 2 µg/ml DAPI (Sigma D9542) in wash buffer for 10 minutes in the dark at 23 °C. After DAPI staining, the cells were washed 3 more times with wash buffer and stored in the final wash until ready for imaging.
A spinning-disk Opera PhenixTM (Perkin Elmer) microscope equipped with a 40x water immersion objective was employed to acquire 10 confocal images for each well in a single optimized focal plane comprising three fluorescence channels: 405, 488 and 568 nm for DAPI, Alexa Fluor 488 and Alexa Fluor 594, respectively. Image analysis and evaluation was done using Harmony High-Content Imaging and Analysis software. DAPI staining (405 nm) was used to segment nuclei, which were further gated for the presence of γH2AX staining

[2] = tested on: U2OS cells; assay: Tolerance / cytotoxicity of compounds in U2OS cells; format: cell-based; conditions: compound at 500 μM, 8 h assay
Procedure: U2OS cells were treated with HU and the formation of mUb-FANCD2 in the presence of CU 1, CU2, and CU9 was evaluated relative to a DMSO control. Following a 1-h preincubation with the compounds, cells were treated with 2.5 mM of HU for 24 h. […] Accordingly, cells were treated with a higher concentration of compounds in further experiments.

[3] = in the presence of HU 2.5 mM, relative to HU alone
[4] = in the presence of cisplatin 10 μM, relative to cisplatin alone

Row | SMILES | γH2AX positive cells / γH2AX levels [1] | H2AX positive nuclei, Experiment 1 [1] | H2AX positive nuclei, Experiment 2 [1] | H2AX positive nuclei, Experiment 3 [1] | number of FANCD2 foci per cell [1, 3] | number of FANCD2 foci per cell [1, 4] | H2AX positive nuclei, Totals [1] | tolerance by cells [2]
1 | NCCN1C(=O)CC[C@H]2CN(Cc3cccc(-c4ccco4)c3)CC[C@H]21 [CU1] | no reduction in γH2AX positive cells; also recorded: do not significantly affect | 40 | 279 | 126 | clear reduction in the number of FANCD2 foci per cell | clear reduction in the number of FANCD2 foci per cell | 445 | –
2 | CCN1CCN(c2cc(C)nc3nc(CN4CCCCC4C)nn23)CC1 (stereo not shown) [CU2] | no reduction in γH2AX positive cells; also recorded: do not significantly affect | 56 | 303 | 79 | clear reduction in the number of FANCD2 foci per cell | clear reduction in the number of FANCD2 foci per cell | 438 | tolerated
3 | Cc1nnc(N(C)CC2CCN(CC(C)O)CC2)c(C#N)c1C (stereo not shown) [CU9] | – | – | – | – | – | – | – | tolerated
